Among the data in US5789595A, “Tetrahydroisoquinoline derivative and medical preparation containing the same” (Terumo Kabushiki Kaisha, priority 1994, dated 1998) are IC50 values, retold here.

Common to all, as to assay type: cell-based
Experiment [1] relates to human platelet. Description: ADP-induced aggregation of human platelets (platelet-rich plasma), inhibition. The following applies: human PRP, 20 to 30×1e4 platelets/μl, 37° C., read-out: Inhibitory action for agglutination by ADP IC50. As for the experimental part: Inhibity effects on human platelet of the invention derivatives to evaluate the activity for inhibiting aggregation induced by ADP (adenosine diphosphate), thrombin, and fibrinogen were measured in accordance with the procedure as described below. (1) Preparation of platelet-rich plasma, washed platelets, and α-chymotrypsin-treated platelets Human whole blood withdrawn from human elbow vein into 10% volume of 3.8% sodium citrate was centrifuged at 135×g (1100 rpm) for 10 minutes, and the supernatant was collected as platelet-rich plasma (PRP). The residue was further centrifuged at 1600×g (3000 rpm) for 10 minutes, and the supernatant was collected as platelet-poor plasma (PPP). PRP and PPP were used for the measurement of the aggregation induced by ADP. In the meanwhile, PRP was applied to Sepharose CL-2B column (manufacture by Pharmacia) equilibrated with HEPES buffer, pH 7.4 containing 0.5% BSA and 5.5 mM glucose, and the fractions eluted in the void volume were collected as platelet-suspension, and used for the measurement of the aggregation induced by thrombin. In addition, washed platelet were treated with α-chymotrypsin of the final concentration of 10 U/ml for 30 minutes at room temperature. Then, the protease reaction was stopped by the addition of trypsin-chymotrypsin inhibitor (0.5 mg/ml), and α-chymotrypsin-treated platelet-suspension was used for the aggregation induced by fibrinogen. (2) Measurement of ADP-induced aggregation PRP was diluted with PPP to adjust the number of platelets to 20 to 30×1e4/μl, and the aggregation induced by ADP was measured with aggligometer (HEMATRACER VI, manufactured by NBS). 0.2 ml of PRP was placed in the cubette of the aggligometer with 25 μl of the test solution or physiological saline (control), and was incubated at 37° C. for 5 minutes with stirring (1000 rpm). Then, 25 μl of ADP solution was added and the time course of the light transmittance was recorded. The transmittance of PRP and PPP were calibrated as 0 and 100% respectively, and the maximum transmittance after adding the agonist was taken for the maximum aggregation. The concentration of 50% inhibition (IC50) was calculated from the proportion of the maximum aggregation with test solution to physiological saline.

The test system of experiment [2] is human platelet. Description: Thrombin-induced aggregation of human platelets (washed platelet suspension), inhibition. The following applies: HEPES buffer pH 7.4, 2 mM CaCl2 and MgCl2, read-out: Inhibitory action for agglutination by thrombin IC50. How it is done: (§1) Inhibity effects on human platelet of the invention derivatives to evaluate the activity for inhibiting aggregation induced by ADP (adenosine diphosphate), thrombin, and fibrinogen were measured in accordance with the procedure as described below.
(§2) (1) Preparation of platelet-rich plasma, washed platelets, and α-chymotrypsin-treated platelets
(§3) Human whole blood withdrawn from human elbow vein into 10% volume of 3.8% sodium citrate was centrifuged at 135×g (1100 rpm) for 10 minutes, and the supernatant was collected as platelet-rich plasma (PRP). The residue was further centrifuged at 1600×g (3000 rpm) for 10 minutes, and the supernatant was collected as platelet-poor plasma (PPP). PRP and PPP were used for the measurement of the aggregation induced by ADP. In the meanwhile, PRP was applied to Sepharose CL-2B column (manufacture by Pharmacia) equilibrated with HEPES buffer, pH 7.4 containing 0.5% BSA and 5.5 mM glucose, and the fractions eluted in the void volume were collected as platelet-suspension, and used for the measurement of the aggregation induced by thrombin. In addition, washed platelet were treated with α-chymotrypsin of the final concentration of 10 U/ml for 30 minutes at room temperature. Then, the protease reaction was stopped by the addition of trypsin-chymotrypsin inhibitor (0.5 mg/ml), and α-chymotrypsin-treated platelet-suspension was used for the aggregation induced by fibrinogen.
(3) Measurement of thrombin-induced aggregation
The platelet-suspension was diluted with HEPES buffer, pH 7.4 to adjust the number of platelets to 20 to 30×1e4/μl, and calcium chloride and magnesium chloride were respectively added to 2 mM (final concentration). The aggregation induced by thrombin was measured with this platelet-suspension and HEPES buffer (contrast) by the same procedure as the measurement of the aggregation induced by the ADP. The concentration of 50% inhibition (IC50) was calculated from the proportion of the maximum aggregation with test solution to physiological saline.

Experiment [3] has as its system human platelet. In words: Fibrinogen-induced aggregation of α-chymotrypsin-treated human platelets, inhibition. The following applies: fibrinogen (0.4 mg/ml), HEPES buffer pH 7.4, PGE1 1 μM, read-out: Inhibitory action for agglutination by fibrinogen IC50. How it is done:
as §1, §2
as §3, with “In addition, washed platelet were treated with α-chymotrypsin of the final concentration of 10 U/ml for 30 minutes at room temperature. Then, the protease reaction was stopped by the addition of trypsin-chymotrypsin inhibitor (0.5 mg/ml), and α-chymotrypsin-treated platelet-suspension was used for the aggregation induced by fibrinogen.” left out
α-chymotrypsin-treated platelet-suspension was diluted with HEPES buffer, pH 7.4 to adjust the number of platelets to 20 to 30×1e4/μl. […] The aggregation induced by fibrinogen (0.4 mg/ml) was measured with this platelet-suspension and the HEPES buffer (contrast). […]

Counter-ions that a name gives are not always drawn.

As for `O=C(O)CCCN1CCc2ccc(NC(=O)COC3CCNCC3)cc2C1` [Ex. 3, 7-(piperidine-4-yloxyacetylamino)-2-(3-carboxypropyl)-1,2,3,4-tetrahydroisoquinoline], the IC50 in experiment [1] and in experiment [2] was over 10 µM throughout.
As for `CC1CN(CCC(=O)O)Cc2cc(NC(=O)COC3CCNCC3)ccc21` (centres unmarked) [Ex. 11, 2-(2-carboxyethyl)-4-methyl-7-(piperidine-4-yloxyacetylamino)-1,2,3,4-tetrahydroisoquinoline hydrochloride], the IC50 in experiment [1] amounted to 0.15 µM.
Still for that read-out and setting: the same measure for `CC1CC(OCC(=O)Nc2ccc3c(c2)CN(CCC(=O)O)CC3)CC(C)N1` (centres unmarked) [Ex. 7, 7-(2,6-dimethylpiperidine-4-yloxyacetylamino)-2-(2-carboxyethyl)-1,2,3,4-tetrahydroisoquinoline]: over 10 µM.
Regarding `O=C(O)CCN1CCc2ccc(NC(=O)COC3CCNCC3)cc2C1` [Ex. 2, 7-(piperidine-4-yloxyacetylamino)-2-carboxyethyl-1,2,3,4-tetrahydroisoquinoline], the figures for the IC50 in experiment [1], in experiment [3] and in experiment [2] were 0.097 µM, 0.038 µM and 0.066 µM, respectively.
For `CC1CNCCC1OCC(=O)Nc1ccc2c(c1)CN(CCC(=O)O)CC2` (centres unmarked) [Ex. 8, 7-(3-methylpiperidine-4-yloxyacetylamino)-2-(2-carboxyethyl)-1,2,3,4-tetrahydroisoquinoline], in experiment [1], the IC50 was 0.23 µM.
As to `CN(C(=O)COC1CCNCC1)c1ccc2c(c1)CN(CCC(=O)O)CC2` [Ex. 5, 7-[(piperidine-4-yloxyacetyl)methylamino]-2-[2-(carboxy)ethyl]-1,2,3,4-tetrahydroisoquinoline], the IC50 amounted to 81 µM in experiment [1] and 43 µM in experiment [2].
Regarding `CC1c2cc(NC(=O)COC3CCNCC3)ccc2CCN1CCC(=O)O` (centres unmarked) [Ex. 10, 2-(2-carboxyethyl)-1-methyl-7-(piperidine-4-yloxyacetylamino)-1,2,3,4-tetrahydroisoquinoline hydrochloride], in experiment [1], the IC50 was 0.38 µM.
In the case of `O=C(O)CN1CCc2ccc(NC(=O)COC3CCNCC3)cc2C1` [Ex. 1, 7-(piperidine-4-yloxyacetylamino)-2-carboxymethyl-1,2,3,4-tetrahydroisoquinoline], the IC50 in experiment [1] stood at 5 µM; in experiment [2] it was 4.8 µM.
Take `CC1(C)Cc2ccc(NC(=O)COC3CCNCC3)cc2CN1CCC(=O)O` [Ex. 12, 2-(2-carboxyethyl)-3,3-dimethyl-7-(piperidine-4-yloxyacetylamino)-1,2,3,4-tetrahydroisoquinoline hydrochloride]: in experiment [1], the IC50 came to 12 µM.
The same measure, in the same setting: the same measure for `CC(CC(=O)O)N1CCc2ccc(NC(=O)COC3CCNCC3)cc2C1` (centres unmarked) [Ex. 9, 7-(piperidine-4-yloxyacetylamino)-2-(2-carboxy-1-methylethyl)-1,2,3,4-tetrahydroisoquinoline]: 0.32 µM.
For `O=C(O)CCN1CCc2ccc(NC(=O)COC3CCNCC3)cc2C1c1ccccc1` (centres unmarked) [Ex. 6, 2-(carbonylethyl)-1-phenyl-7-(piperidine-4-yloxyacetylamino)-1,2,3,4-tetrahydroisoquinoline], the figures for the IC50 in experiment [1] and in experiment [2] were 2.9 µM and 1.9 µM, respectively.

The IC50 is the concentration that inhibits the measured activity by half.
